Laboratory results as given in the NIST ThermoML archive (doi:10.1016/j.jct.2018.06.015).
± gives the expanded uncertainty stated by the source.

Test: xn = mol fraction of the nth substance listed
Settings: 100 kPa, Liquid; for speed of sound: Frequency=3 MHz, Single path-length method; for mass density: Vibrating tube method

## CCCCOCCOCCO [3,6-dioxa-1-decanol] + CCCCCCO
293.15 K, x1 = 0.0612
  speed of sound: 1323.2 ± 2.5 m/s
  mass density: 830.032 ± 0.42 kg/m3
293.15 K, x1 = 0.1016
  speed of sound: 1325.7 ± 2.5 m/s
  mass density: 836.858 ± 0.42 kg/m3
293.15 K, x1 = 0.1593
  speed of sound: 1329.1 ± 2.5 m/s
  mass density: 846.323 ± 0.42 kg/m3
293.15 K, x1 = 0.2053
  speed of sound: 1331.8 ± 2.5 m/s
  mass density: 853.619 ± 0.42 kg/m3
293.15 K, x1 = 0.251
  speed of sound: 1334.4 ± 2.5 m/s
  mass density: 860.647 ± 0.42 kg/m3
293.15 K, x1 = 0.3095
  speed of sound: 1337.5 ± 2.5 m/s
  mass density: 869.401 ± 0.42 kg/m3
293.15 K, x1 = 0.4054
  speed of sound: 1343.2 ± 2.5 m/s
  mass density: 883.079 ± 0.41 kg/m3
293.15 K, x1 = 0.5021
  speed of sound: 1348.5 ± 2.5 m/s
  mass density: 896.077 ± 0.41 kg/m3
293.15 K, x1 = 0.6049
  speed of sound: 1354.2 ± 2.5 m/s
  mass density: 909.164 ± 0.41 kg/m3
293.15 K, x1 = 0.6982
  speed of sound: 1359.8 ± 2.5 m/s
  mass density: 920.378 ± 0.41 kg/m3
293.15 K, x1 = 0.801
  speed of sound: 1365.5 ± 2.5 m/s
  mass density: 931.924 ± 0.41 kg/m3
293.15 K, x1 = 0.8313
  speed of sound: 1367.2 ± 2.5 m/s
  mass density: 935.198 ± 0.41 kg/m3
293.15 K, x1 = 0.9042
  speed of sound: 1372.5 ± 2.5 m/s
  mass density: 942.783 ± 0.41 kg/m3
293.15 K, x1 = 1
  speed of sound: 1378.2 ± 2.5 m/s
  mass density: 952.288 ± 0.41 kg/m3
298.15 K, x1 = 0.0612
  speed of sound: 1306.7 ± 2.5 m/s
  mass density: 826.42 ± 0.42 kg/m3
298.15 K, x1 = 0.1016
  speed of sound: 1309 ± 2.5 m/s
  mass density: 833.209 ± 0.42 kg/m3
298.15 K, x1 = 0.1593
  speed of sound: 1312.2 ± 2.5 m/s
  mass density: 842.636 ± 0.42 kg/m3
298.15 K, x1 = 0.2053
  speed of sound: 1314.9 ± 2.5 m/s
  mass density: 849.892 ± 0.42 kg/m3
298.15 K, x1 = 0.251
  speed of sound: 1317.5 ± 2.5 m/s
  mass density: 856.892 ± 0.42 kg/m3
298.15 K, x1 = 0.3095
  speed of sound: 1320.9 ± 2.5 m/s
  mass density: 865.605 ± 0.42 kg/m3
298.15 K, x1 = 0.4054
  speed of sound: 1326.3 ± 2.5 m/s
  mass density: 879.224 ± 0.41 kg/m3
298.15 K, x1 = 0.5021
  speed of sound: 1331.7 ± 2.5 m/s
  mass density: 892.169 ± 0.41 kg/m3
298.15 K, x1 = 0.6049
  speed of sound: 1337.5 ± 2.5 m/s
  mass density: 905.192 ± 0.41 kg/m3
298.15 K, x1 = 0.6982
  speed of sound: 1342.7 ± 2.5 m/s
  mass density: 916.352 ± 0.41 kg/m3
298.15 K, x1 = 0.801
  speed of sound: 1348.7 ± 2.5 m/s
  mass density: 927.842 ± 0.41 kg/m3
298.15 K, x1 = 0.8313
  speed of sound: 1350.3 ± 2.5 m/s
  mass density: 931.096 ± 0.41 kg/m3
298.15 K, x1 = 0.9042
  speed of sound: 1354.8 ± 2.5 m/s
  mass density: 938.65 ± 0.41 kg/m3
298.15 K, x1 = 1
  speed of sound: 1361.3 ± 2.5 m/s
  mass density: 948.1 ± 0.41 kg/m3
303.15 K, x1 = 0.0612
  speed of sound: 1289.7 ± 2.5 m/s
  mass density: 822.781 ± 0.42 kg/m3
303.15 K, x1 = 0.1016
  speed of sound: 1292.1 ± 2.5 m/s
  mass density: 829.539 ± 0.42 kg/m3
303.15 K, x1 = 0.1593
  speed of sound: 1295.4 ± 2.5 m/s
  mass density: 838.928 ± 0.42 kg/m3
303.15 K, x1 = 0.2053
  speed of sound: 1298.2 ± 2.5 m/s
  mass density: 846.155 ± 0.42 kg/m3
303.15 K, x1 = 0.251
  speed of sound: 1301 ± 2.5 m/s
  mass density: 853.123 ± 0.42 kg/m3
303.15 K, x1 = 0.3095
  speed of sound: 1304.2 ± 2.5 m/s
  mass density: 861.792 ± 0.42 kg/m3
303.15 K, x1 = 0.4054
  speed of sound: 1309.8 ± 2.5 m/s
  mass density: 875.359 ± 0.41 kg/m3
303.15 K, x1 = 0.5021
  speed of sound: 1314.9 ± 2.5 m/s
  mass density: 888.244 ± 0.41 kg/m3
303.15 K, x1 = 0.6049
  speed of sound: 1320.8 ± 2.5 m/s
  mass density: 901.21 ± 0.41 kg/m3
303.15 K, x1 = 0.6982
  speed of sound: 1326.1 ± 2.5 m/s
  mass density: 912.316 ± 0.41 kg/m3
303.15 K, x1 = 0.801
  speed of sound: 1331.8 ± 2.5 m/s
  mass density: 923.754 ± 0.41 kg/m3
303.15 K, x1 = 0.8313
  speed of sound: 1333.3 ± 2.5 m/s
  mass density: 926.99 ± 0.41 kg/m3
303.15 K, x1 = 0.9042
  speed of sound: 1338.3 ± 2.5 m/s
  mass density: 934.516 ± 0.41 kg/m3
303.15 K, x1 = 1
  speed of sound: 1344.5 ± 2.5 m/s
  mass density: 943.909 ± 0.41 kg/m3
308.15 K, x1 = 0.0612
  speed of sound: 1273.2 ± 2.5 m/s
  mass density: 819.109 ± 0.42 kg/m3
308.15 K, x1 = 0.1016
  speed of sound: 1275.4 ± 2.5 m/s
  mass density: 825.839 ± 0.42 kg/m3
308.15 K, x1 = 0.1593
  speed of sound: 1278.6 ± 2.5 m/s
  mass density: 835.192 ± 0.42 kg/m3
308.15 K, x1 = 0.2053
  speed of sound: 1281.3 ± 2.5 m/s
  mass density: 842.384 ± 0.42 kg/m3
308.15 K, x1 = 0.251
  speed of sound: 1283.8 ± 2.5 m/s
  mass density: 849.323 ± 0.42 kg/m3
308.15 K, x1 = 0.3095
  speed of sound: 1287.1 ± 2.5 m/s
  mass density: 857.954 ± 0.42 kg/m3
308.15 K, x1 = 0.4054
  speed of sound: 1292.4 ± 2.5 m/s
  mass density: 871.465 ± 0.42 kg/m3
308.15 K, x1 = 0.5021
  speed of sound: 1297.7 ± 2.5 m/s
  mass density: 884.294 ± 0.41 kg/m3
308.15 K, x1 = 0.6049
  speed of sound: 1303.3 ± 2.5 m/s
  mass density: 897.205 ± 0.41 kg/m3
308.15 K, x1 = 0.6982
  speed of sound: 1308.4 ± 2.5 m/s
  mass density: 908.259 ± 0.41 kg/m3
308.15 K, x1 = 0.801
  speed of sound: 1314.2 ± 2.5 m/s
  mass density: 919.65 ± 0.41 kg/m3
308.15 K, x1 = 0.8313
  speed of sound: 1315.8 ± 2.5 m/s
  mass density: 922.874 ± 0.41 kg/m3
308.15 K, x1 = 0.9042
  speed of sound: 1320.2 ± 2.5 m/s
  mass density: 930.365 ± 0.41 kg/m3
308.15 K, x1 = 1
  speed of sound: 1326.4 ± 2.5 m/s
  mass density: 939.704 ± 0.41 kg/m3
313.15 K, x1 = 0.0612
  speed of sound: 1256.6 ± 2.5 m/s
  mass density: 815.428 ± 0.42 kg/m3
313.15 K, x1 = 0.1016
  speed of sound: 1259.1 ± 2.5 m/s
  mass density: 822.126 ± 0.42 kg/m3
313.15 K, x1 = 0.1593
  speed of sound: 1262.3 ± 2.5 m/s
  mass density: 831.439 ± 0.42 kg/m3
313.15 K, x1 = 0.2053
  speed of sound: 1265 ± 2.5 m/s
  mass density: 838.617 ± 0.42 kg/m3
313.15 K, x1 = 0.251
  speed of sound: 1267.6 ± 2.5 m/s
  mass density: 845.516 ± 0.42 kg/m3
313.15 K, x1 = 0.3095
  speed of sound: 1271.2 ± 2.5 m/s
  mass density: 854.105 ± 0.42 kg/m3
313.15 K, x1 = 0.4054
  speed of sound: 1276.4 ± 2.5 m/s
  mass density: 867.564 ± 0.42 kg/m3
313.15 K, x1 = 0.5021
  speed of sound: 1281.6 ± 2.5 m/s
  mass density: 880.34 ± 0.41 kg/m3
313.15 K, x1 = 0.6049
  speed of sound: 1287.3 ± 2.5 m/s
  mass density: 893.199 ± 0.41 kg/m3
313.15 K, x1 = 0.6982
  speed of sound: 1292.7 ± 2.5 m/s
  mass density: 904.202 ± 0.41 kg/m3
313.15 K, x1 = 0.801
  speed of sound: 1298.2 ± 2.5 m/s
  mass density: 915.548 ± 0.41 kg/m3
313.15 K, x1 = 0.8313
  speed of sound: 1299.6 ± 2.5 m/s
  mass density: 918.76 ± 0.41 kg/m3
313.15 K, x1 = 0.9042
  speed of sound: 1304.8 ± 2.5 m/s
  mass density: 926.213 ± 0.41 kg/m3
313.15 K, x1 = 1
  speed of sound: 1307.7 ± 2.5 m/s
  mass density: 935.503 ± 0.41 kg/m3
